Literature values as cited in patent US20250367228A1, “FORMULATIONS FOR BOOSTING NAD+ USING MULTIPLE BIOLOGICAL PATHWAYS CONCURRENTLY TO OVERCOME ENZYMATIC DEGRADATION AND IMPROVE DOWNSTREAM BENEFITS” (PROHEALTH, priority 2023, published 2025).

Columns and labels:
[1] = tested on: NAD+ blood concentrations; details: 1000 mg/day of NR, elderly subjects
CD38 = target: T1, CD38 (Homo sapiens, UniProt P28907)
T1 sequence (P28907 1-300): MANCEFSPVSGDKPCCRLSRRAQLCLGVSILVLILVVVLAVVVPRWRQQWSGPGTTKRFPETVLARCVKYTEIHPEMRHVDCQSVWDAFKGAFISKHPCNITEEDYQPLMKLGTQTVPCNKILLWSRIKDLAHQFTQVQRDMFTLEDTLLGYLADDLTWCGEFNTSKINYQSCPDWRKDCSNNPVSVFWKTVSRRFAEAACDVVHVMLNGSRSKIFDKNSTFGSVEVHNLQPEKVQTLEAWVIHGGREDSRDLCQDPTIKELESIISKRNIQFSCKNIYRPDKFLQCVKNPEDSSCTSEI

| inhibition of CD38 (CD38) | Structure (SMILES) | increase of NAD+ blood concentrations [1] |
| --- | --- | --- |
| – | NC(=O)c1ccc[n+]([C@@H]2O[C@H](CO)[C@@H](O)[C@H]2O)c1 [NR, Nicotinamide riboside] | two-fold |
| inhibited | O=c1cc(-c2ccc(O)cc2)oc2cc(O)cc(O)c12 [apigenin] | – |
| inhibited | O=c1c(O)c(-c2ccc(O)c(O)c2)oc2cc(O)cc(O)c12 [quercetin] | – |
